Results on two compounds are retold here after ChEMBL document CHEMBL1629623, “In vitro activity of the quinolone WCK 771 against recent U.S. hospital and community-acquired Staphylococcus aureus pathogens with various resistance types” (Antimicrob Agents Chemother, 2009).

Data set [1] concerns Staphylococcus aureus. Put plainly: Antibacterial activity against Staphylococcus aureus after 24 hrs by CLSI method. In kind it is functional.
Data set [2] deals with Staphylococcus aureus. The data set can be described thus: Antibacterial activity against methicillin-susceptible Staphylococcus aureus after 24 hrs by CLSI method. In kind it is functional.
In data set [3] the test system is Staphylococcus aureus. Put plainly: Antibacterial activity against community acquired methicillin-resistant Staphylococcus aureus after 24 hrs by CLSI method. It counts as functional.
Data set [4] deals with Staphylococcus aureus. Put plainly: Antibacterial activity against hospital acquired methicillin-resistant Staphylococcus aureus after 24 hrs by CLSI method. It counts as functional.
The test system of data set [5] is Staphylococcus aureus. Put plainly: Antibacterial activity against vancomycin-intermediate Staphylococcus aureus after 24 hrs by CLSI method. In kind it is functional.
The test system of data set [6] is Staphylococcus aureus. The data set can be described thus: Antibacterial activity against quinolone-resistant Staphylococcus aureus after 24 hrs by CLSI method. In kind it is functional.
Data set [7] relates to Staphylococcus aureus. Put plainly: Antibacterial activity against vancomycin-intermediate Staphylococcus aureus Mu50 harboring GyrA S84L and GrlA S80F mutant after 24 hrs by CLSI method. It counts as functional. The conditions noted are these: Mu50, 24 h.
For data set [8], the system named is Staphylococcus aureus. The data set can be described thus: Antibacterial activity against vancomycin-resistant Staphylococcus aureus VRS1 harboring GyrA S84L and GrlA S80F mutant after 24 hrs by CLSI method. Particulars: VRS1, 24 h. In kind it is functional.
The test system of data set [9] is Staphylococcus aureus. Put plainly: Antibacterial activity against vancomycin-resistant Staphylococcus aureus VRS2 harboring GyrA S84L and GrlA S80F mutant after 24 hrs by CLSI method. In kind it is functional. The conditions noted are these: VRS2, 24 h.
Data set [10] relates to Staphylococcus aureus. The data set can be described thus: Antibacterial activity against vancomycin-resistant Staphylococcus aureus VRS3 harboring GyrA S84L and GrlA S80F, E84K mutant after 24 hrs by CLSI method. It counts as functional. Particulars: VRS3, 24 h.
The test system of data set [11] is Staphylococcus aureus. The data set can be described thus: Antibacterial activity against vancomycin-resistant Staphylococcus aureus VRS6 harboring GyrA S84L and GrlA S80F, E84G mutant after 24 hrs by CLSI method. In kind it is functional. The conditions noted are these: VRS6, 24 h.
Data set [12] relates to Staphylococcus aureus. Put plainly: Antibacterial activity against vancomycin-resistant Staphylococcus aureus VRS7 harboring GyrA S84L and GrlA S80F mutant after 24 hrs by CLSI method. In kind it is functional, organism-based.
In data set [13] the test system is Staphylococcus aureus. The data set can be described thus: Antibacterial activity against vancomycin-resistant Staphylococcus aureus VRS4 harboring GyrA S84L and GrlA S80F, E84K mutant after 24 hrs by CLSI method. In kind it is functional, organism-based.
Data set [14] is described as follows: AUC in human at 800 mg, iv qd after 24 hrs. In kind it is ADME, organism-based. On the set-up: dose 800 mg, time < 24 hr, route intravenous. Particulars: plasma.
Data set [15] is described as follows: Ratio of AUC in human to MIC for Staphylococcus aureus after 24 hrs. In kind it is functional.
Data set [16] relates to Staphylococcus aureus. The data set can be described thus: microbe, parasite or virus in culture. The conditions noted are these: Staphylococcus aureus, 32, 24 h.
Description: Antibacterial activity against vancomycin-susceptible methicillin-resistant Staphylococcus aureus 32 harboring GyrA S84L and GrlA S80Y mutant after 24 hrs by CLSI method
For data set [17], the system named is Staphylococcus aureus. The data set can be described thus: microbe, parasite or virus in culture. The conditions noted are these: Staphylococcus aureus, 34, 24 h.
Description: Antibacterial activity against vancomycin-susceptible methicillin-resistant Staphylococcus aureus 34 harboring GyrA S84L and GrlA S80F mutant after 24 hrs by CLSI method
Data set [18] deals with Staphylococcus aureus. The data set can be described thus: microbe, parasite or virus in culture. The conditions noted are these: Mu3, 24 h.
Description: Antibacterial activity against vancomycin-intermediate Staphylococcus aureus Mu3 harboring GyrA S84L and GrlA S80F mutant after 24 hrs by CLSI method
Data set [19] has as its system Staphylococcus aureus. The data set can be described thus: Antibacterial activity against vancomycin-resistant Staphylococcus aureus VRS5 harboring GyrA S84L, E88K and GrlA S80Y, E84G mutant after 24 hrs by CLSI method. The conditions noted are these: VRS5, 24 h.

In brackets after ≈: the same amount, converted by molar mass. Activity calls are given as the source filed them. No cut-off for these calls is given here.

For orientation: MIC50 means the lowest concentration that inhibits either 50% of growth or 50% of the strains tested, depending on the study. The term MIC90 denotes the lowest concentration that inhibits either 90% of growth or 90% of the strains tested, depending on the study. A word on the AUC: it is concentration integrated over time. Read a high AUC as more exposure. For `C[C@H]1CCc2c(N3CCC(O)CC3)c(F)cc3c(=O)c(C(=O)O)cn1c23.N=C(N)NCCC[C@H](N)C(=O)O`, the MIC50 was 0.03 µg/mL against Staphylococcus aureus [1]; 0.03 µg/mL in the data set with Staphylococcus aureus [2]; 0.03 µg/mL against Staphylococcus aureus [3]; 0.5 µg/mL in the data set with Staphylococcus aureus [4]; 0.25 µg/mL against Staphylococcus aureus [5]; 0.5 µg/mL with Staphylococcus aureus [6]. In addition, the MIC90 was determined as 1 µg/mL against Staphylococcus aureus [1]; 0.25 µg/mL in the data set with Staphylococcus aureus [2]; 0.5 µg/mL against Staphylococcus aureus [3]; 1 µg/mL against Staphylococcus aureus [4]; 0.5 µg/mL with Staphylococcus aureus [5]; 1 µg/mL against Staphylococcus aureus [6]. Also, the MIC was 1 µg/mL in the data set on Staphylococcus aureus [7]; 0.5 µg/mL in the data set with Staphylococcus aureus [8]; 0.5 µg/mL in the data set on Staphylococcus aureus [9]; 0.5 µg/mL in the data set on Staphylococcus aureus [10]; 0.5 µg/mL against Staphylococcus aureus [11]; 0.5 µg/mL against Staphylococcus aureus [16]. The MIC is 0.5 µg/mL against Staphylococcus aureus [17], 1 µg/mL against Staphylococcus aureus [18] and 8 µg/mL in the data set on Staphylococcus aureus [19]. Further, the result in the data set with Staphylococcus aureus [12] and with Staphylococcus aureus [13] was Active. In addition, in data set [14], the AUC at 24 h is 390 µg·h/mL. For the same compound, the RatioAUC/MIC in [15] was 58.5.
As for `CN[C@H](CC(C)C)C(=O)N[C@H]1C(=O)N[C@@H](CC(N)=O)C(=O)N[C@H]2C(=O)N[C@H]3C(=O)N[C@H](C(=O)N[C@H](C(=O)O)c4cc(O)cc(O)c4-c4cc3ccc4O)[C@H](O)c3ccc(c(Cl)c3)Oc3cc2cc(c3O[C@@H]2O[C@H](CO)[C@@H](O)[C@H](O)[C@H]2O[C@H]2C[C@](C)(N)[C@H](O)[C@H](C)O2)Oc2ccc(cc2Cl)[C@H]1O` [VANCOMYCIN], the MIC50 was 1 µg/mL (≈ 0.69 µM) against Staphylococcus aureus [1]; 1 µg/mL (≈ 0.69 µM) in the data set with Staphylococcus aureus [2]; 1 µg/mL (≈ 0.69 µM) in the data set on Staphylococcus aureus [3]; 1 µg/mL (≈ 0.69 µM) against Staphylococcus aureus [4]; 4 µg/mL (≈ 2.76 µM) in the data set on Staphylococcus aureus [5]; 1 µg/mL (≈ 0.69 µM) in the data set on Staphylococcus aureus [6]. Also, the MIC90 against Staphylococcus aureus [1] was found to be 1 µg/mL (≈ 0.69 µM); in the data set on Staphylococcus aureus [2], 1 µg/mL (≈ 0.69 µM); against Staphylococcus aureus [3] it was 1 µg/mL (≈ 0.69 µM); in the data set with Staphylococcus aureus [4] it was 4 µg/mL (≈ 2.76 µM); with Staphylococcus aureus [5], 4 µg/mL (≈ 2.76 µM); in the data set on Staphylococcus aureus [6], 4 µg/mL (≈ 2.76 µM). In addition, the MIC with Staphylococcus aureus [7] was 8 µg/mL (≈ 5.52 µM); in the data set on Staphylococcus aureus [8] it was 128 µg/mL (≈ 88.3 µM); with Staphylococcus aureus [9], 32 µg/mL (≈ 22.1 µM); with Staphylococcus aureus [10], 64 µg/mL (≈ 44.2 µM); in the data set on Staphylococcus aureus [11] it was 128 µg/mL (≈ 88.3 µM); against Staphylococcus aureus [19] it was 64 µg/mL (≈ 44.2 µM).
